Laboratory results taken from the supplement of paper PMC10307832.

Columns and labels:
Assay in all cases: relative viability (nuclei count vs DMSO), 5 days (fraction); higher = more cells survive
[1] = compound: NCC(=O)Nc1ccc(-n2nc(C(F)(F)F)cc2-c2ccc3c(ccc4ccccc43)c2)cc1 + CS(=O)(=O)N1CCN(Cc2cc3nc(-c4cccc5[nH]ncc45)nc(N4CCOCC4)c3s2)CC1 [Pictilisib] (partner 1 µM)
In short: (§1)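 Medians of duplicate plates are given as relative viability. That measure is the nuclei count in treated wells divided by the count in vehicle wells. Counts were taken on 4× images of lung cancer cell lines in 1536-well plates, 5 days after pin-tool dosing the day after seeding with one drug alone or a fixed anchor-drug dose plus five library-drug doses (not always all listed) in √10 steps.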

[2] = compound: NCC(=O)Nc1ccc(-n2nc(C(F)(F)F)cc2-c2ccc3c(ccc4ccccc43)c2)cc1 + O=C(CCCCCCC(=O)Nc1ccccc1)NO [Vorinostat] (partner 1 µM)
In short: as §1

[3] = compound: C1CSC2=C(C(=O)N1)SC3=C2C=C(C=C3)O [kb NB 142-70] + Nc1nc2[nH]cc(CCc3ccc(C(=O)N[C@@H](CCC(=O)O)C(=O)O)cc3)c2c(=O)[nH]1 [Pemetrexed] (partner 0.2 µM)
In short: as §1

kb NB 142-70 + Olaparib = compound: C1CSC2=C(C(=O)N1)SC3=C2C=C(C=C3)O [kb NB 142-70] + O=C(c1cc(Cc2n[nH]c(=O)c3ccccc23)ccc1F)N1CCN(C(=O)C2CC2)CC1 [Olaparib] (partner 8 µM)
In short: as §1

| Cell Line | relative viability ([1]; first compound 0.02 µM) | relative viability ([1]; first compound 0.06325 µM) | relative viability ([1]; first compound 0.2 µM) | relative viability ([1]; first compound 0.6325 µM) | relative viability ([1]; first compound 2 µM) | relative viability ([2]; first compound 0.02 µM) | relative viability ([2]; first compound 0.06325 µM) | relative viability ([2]; first compound 0.2 µM) | relative viability ([2]; first compound 0.6325 µM) | relative viability ([2]; first compound 2 µM) | relative viability ([3]; first compound 0.1 µM) | relative viability ([3]; first compound 1 µM) | relative viability ([3]; first compound 3.162 µM) | relative viability (kb NB 142-70 + Olaparib; first compound 0.1 µM) | relative viability (kb NB 142-70 + Olaparib; first compound 1 µM) | relative viability (kb NB 142-70 + Olaparib; first compound 3.162 µM) |
| --- | --- | --- | --- | --- | --- | --- | --- | --- | --- | --- | --- | --- | --- | --- | --- | --- |
| 201T | 0.664 | 0.655 | 0.68 | 0.734 | 0.687 | 0.926 | 0.968 | 0.957 | 0.974 | 0.935 | 0.315 | 0.349 | 0.318 | 0.828 | 0.87 | 0.85 |
| A549 | 0.459 | 0.495 | 0.564 | 0.565 | 0.517 |  |  |  |  |  |  |  |  | 0.305 | 0.363 | 0.155 |
| A-427 | 0.595 | 0.726 | 0.744 | 0.739 | 0.815 | 0.864 | 0.825 | 0.908 | 0.839 | 0.982 | 0.886 | 1.01 | 0.873 | 0.747 | 0.77 | 0.52 |
| ABC-1 | 0.808 | 0.81 |  | 0.745 | 0.563 | 0.917 | 1.15 |  | 1.08 | 1.39 |  |  |  | 0.712 | 0.746 | 0.427 |
| BEN | 0.54 | 0.581 | 0.55 | 0.547 | 0.576 | 0.579 | 0.526 | 0.56 | 0.593 | 0.586 | 0.773 | 0.761 | 0.575 | 1.09 | 1.21 | 1.01 |
| CAL-12T | 0.392 | 0.617 | 0.481 | 0.404 | 0.475 | 0.692 | 0.822 | 1.04 | 0.684 | 0.916 | 1.11 | 1.34 | 1.27 | 0.7 | 0.691 | 0.677 |
| COR-L23 | 0.712 | 0.767 | 0.95 | 0.798 | 0.613 | 0.466 | 0.46 | 0.576 | 0.449 | 0.372 | 0.183 | 0.201 | 0.196 | 0.344 | 0.442 | 0.263 |
| COR-L 105 | 0.426 | 0.357 | 0.423 | 0.363 | 0.391 | 0.873 | 0.861 | 0.724 | 0.781 | 1.04 | 1.14 | 1.08 | 0.925 | 0.82 | 0.637 | 0.726 |
| Calu-6 | 0.849 | 0.891 | 0.975 | 0.949 | 0.93 |  |  |  |  |  |  |  |  | 0.589 | 0.457 | 0.287 |
| ChaGo-K-1 | 0.617 | 0.784 | 0.394 | 0.676 | 1.04 | 0.667 | 0.794 | 0.725 | 0.725 | 0.76 | 0.261 | 0.26 | 0.257 | 0.489 | 0.361 | 0.362 |
| EBC-1 | 0.324 | 0.37 | 0.434 | 0.36 | 0.404 |  |  |  |  |  |  |  |  | 0.775 | 0.587 | 0.385 |
| EKVX | 0.531 | 0.493 | 0.466 | 0.45 | 0.531 | 0.726 | 0.83 | 0.751 | 0.724 | 0.731 | 0.35 | 0.399 | 0.378 | 0.853 | 0.88 | 0.984 |
